Measured values taken from US9006191B2, “Silencing of polo-like kinase expression using interfering RNA” (Protiva Biotherapeutics, Inc., priority 2007, dated 2015).
“Also recorded” adds a separate entry of the source.

Columns and labels:
Hep3B liver tumors = assay: Intrahepatic Hep3B tumor model (survival, body weight, tumor burden); format: in vivo
Experimental: SNALP containing PLK-1 siRNA (“1:57” SNALP formulation: 1.4% PEG-cDMA; 57.1% DLinDMA; 7.1% DPPC; and 34.3% cholesterol) were tested for their effects on the survival of […] mice bearing Hep3B liver tumors.
Intrahepatic tumor models. Liver tumors were established in mice by direct intrahepatic injection of Hep3B or Neuro2a tumor cells (45). Female scid/beige mice (Charles River Laboratories) and male A/J mice (Jackson Laboratories) were used as hosts for the Hep3B and Neuro2a tumors, respectively. Animals received Anafen by SC injection immediately prior to surgery. Individual mice were anaesthetized by isoflourane gas inhalation and eye lube applied to prevent excessive eye drying. While maintained under gas anaesthesia, a single 1.5 cm incision across the midline was made below the sternum and the left lateral hepatic lobe exteriorized. 1×10^6 Hep3B cells or 1×10^5 Neuro2a cells suspended in 25 μL PBS were injected slowly into the lobe at a shallow angle using a Hamilton syringe and 30G needle. A swab was then applied to the puncture wound to stop any bleeding prior to suturing. Mice were allowed to recover from anaesthesia in a sterile cage and monitored closely for 2-4 h before being returned to conventional housing.
Eight to 11 days after tumor implantation, mice were randomized into treatment groups. siRNA SNALP formulations or PBS vehicle control were administered by standard intravenous injection via the lateral tail vein, calculated on a mg siRNA/kg basis according to individual animal weights (10 mL/kg injection volume). Body weights were then monitored throughout the duration of the study as an indicator of developing tumor burden and treatment tolerability. For efficacy studies, defined humane endpoints were determined as a surrogate for survival. Assessments were made by qualified veterinary technicians based on a combination of clinical signs, weight loss, and abdominal distension to define the day of euthanization due to tumor burden.
Measurement of human PLK-1 and GAPDH mRNA in tumor tissues. Tumors were harvested directly into RNALater and stored at 4° C. until processing. 100 mg tumor tissue was homogenized in Tissue and Lysis Solution (EpiCentre Biotechnologies) containing […] proteinase K (EpiCentre) in a Fastprep tissue homogenizer followed by incubation in a 65° C. waterbath for 15 min and centrifuged to clarify lysates. mRNA analysis in FIG. 33B was performed on purified RNA isolated according the 5′-RACE-PCR protocol. Human PLK-1 and GAPDH mRNA were measured in tumor lystes by the QuantiGene bDNA assay (Panomics) as per the manufacturer's instructions (Quantigene 1.0 Manual). […] Data were expressed as mean PLK-1:GAPDH ratio+/−SD of individual animals. Tumor burden was assessed by homogenizing the complete liver from tumor bearing mice and measuring the total hGAPDH signal (RLU's) within the liver. Values were expressed as hGAPDH RLU/mg total liver.

[1] = system: Flt3-ligand derived murine dendritic cells; assay: Cytokine induction in murine Flt3L dendritic cell cultures (ELISA); format: cell-based, mouse; settings: murine Flt3L DC, 5 μg/ml siRNA in SNALP, 24 h
Experimental: Cytokine Induction Assays: Flt3-ligand derived murine dendritic cells (Flt3L DC) were generated as described by Gilliet et al. (J. Exp. Med., 195:953-958) using 100 ng/ml murine Flt3-ligand (PeproTech Inc.; Rocky Hill, N.J.) supplemented media. Femurs and tibiae of female Balb/C mice were isolated and rinsed in sterile PBS. The ends of bones were cut and marrow harvested in complete media (RPMI 1640, 10% heat inactivated FBS, 1% penicillin/streptomycin, 2 mM L-glutamine, 1 mM sodium pyruvate, 25 mM HEPES, 50 μM 2-mercaptoethanol). Bone marrow cells were passed through a 70 μm strainer, centrifuged at 1000 rpm for 7 minutes, and resuspended in complete media supplemented with 100 ng/ml murine Flt3L to 2×10^6 cells/ml. 2 mls of cells were seeded in 6-well plates and 1 ml fresh complete media added every two or three days. On day 9 of culture, non-adherent cells were washed in complete media and plated into 96-well plates at concentrations ranging from 0.5 to 2.5×10^5 cells/well. 2′OMe-modified and unmodified (0/0) PLK-1 SNALP were diluted in PBS and added to Flt3L DC cultures at 5 μg/ml siRNA. Cells were incubated for 24 hours at 37° C. before supernatants were assayed for cytokines by ELISA.
Cytokine ELISA: Interferon-α and IL-6 in culture supernatants were quantified using sandwich ELISA kits according to manufacturer's instructions. These were mouse IFN-α (PBL Biomedical; Piscataway, N.J.) and mouse IL-6 (eBioscience; San Diego, Calif.).
In vitro immune stimulation assays. Mouse Flt3L dendritic cell cultures were generated as described previously (65). In brief, bone marrow from Balb/C mice was harvested in complete media (RPMI 1640, 10% FBS, 1% penicillin/streptomycin, 2 mM L-glutamine, 1 mM sodium pyruvate, 25 mM HEPES, 50 uM 2-mercaptoethanol), passed through a 70 micron strainer and resuspended to 2×10^6 cells/mL in complete media supplemented with 100 ng/mL murine Flt3L (Peprotech). Cells were seeded in 6-well plates and 1 mL fresh Flt3L media added every three days. On day 9 of culture, non-adherent cells were plated into 96 well plates at a concentration 2×10^5 cells/well. Formulated siRNA were diluted in PBS and added to the cells for 24 h before supernatants were assayed for cytokines by ELISA.
Cytokine ELISA. All cytokines were quantified using sandwich ELISA kits.

LS174T cells = assay: Apoptosis/Caspase 3/7 assay in LS174T cells; format: cell-based, human; settings: SNALP-formulated siRNA, 24-72 h
Experimental: This assay is based on the specific enzymatic cleavage of the Caspase 3/7 substrate (Z-DEVD)-2-Rhodamine 110 to a fluorogenic product and is used to quantify the level of apoptosis in cultured cells.
SNALP containing PLK1424 or PLK773 siRNA (“2:40” SNALP formulation: 2% PEG-cDMA; 40% DLinDMA; 10% DSPC; and 48% cholesterol) were further tested for their effects on inducing the apoptosis of LS174T cells. Cells were plated in triplicate at ˜10,000 cells/well. SNALP dosages were as follows: 30 nM; 10 nM; and 3.3 nM. Caspase 3/7 assays were performed at 24, 48, and 72 hours following transfection. SNALP containing a non-targeting (GFP) siRNA were used as a negative control.

[2] = Hep3B-nu/nu mouse model, 2 mg/kg twice weekly d11-d28

Substance	mice with visible tumors at autopsy (Hep3B liver tumors; day 22, 1 day after fifth 2 mg/kg dose)	survival advantage (Kaplan-Meier, Log-rank) (Hep3B liver tumors; scid/beige mice, 6 × 2 mg/kg IV twice weekly, d 10 to d 28)	cytokine (IL-6, IFN-α) response [1]	median survival, Study (A) (Hep3B liver tumors; [2]) [days]	median survival, study (B) (Hep3B liver tumors; [2]) [days]	induction of apoptosis (Caspase 3/7 activity) (LS174T cells)
PLK1424-2/A: 2′OMe-modified PLK1424 duplex, SEQ ID NO:214/215 (same SEQ IDs as PLK1424 1/3 of Table 11) (chain 1 AGANCACCCNCCUNAAANAUU; chain 2 UAUUUAANGAGGGUGANCUUU; siRNA; 2'-O-methyl modifications at selected positions, key for n not given here)	2 of 6	significant survival advantage over control treatment	completely abrogated			
PLK1424: siRNA to human PLK-1, SEQ ID NO:1/2 (UU overhang form 211/212) (chain 1 AGAUCACCCUCCUUAAAUA; chain 2 UAUUUAAGGAGGGUGAUCU; further chemistry not given here)			high levels of both IFNα and IL-6	45	42	induced a significant amount of apoptosis in LS174T cells at all SNALP doses tested; also recorded: dose-dependent induction of apoptosis 48 h after siRNA transfection
PLK773: siRNA to human PLK-1, SEQ ID NO:3/4 (UU overhang form 218/219) (chain 1 AGACCUACCUCCGGAUCAA; chain 2 UUGAUCCGGAGGUAGGUCU; RNA, backbone not given here)			high levels of both IFNα and IL-6			induced a significant amount of apoptosis in LS174T cells at all SNALP doses tested
